Measurements from US10080758B2, “Tosylate salt of N-[3-[(4aR,7aS)-2-amino-6-(5-fluoropyrimidin-2-yl)-4,4a,5,7-tetrahydropyrrolo[3,4-d][1,3]thiazin-7a-yl]-4-fluoro-phenyl]-5-methoxy-pyrazine-2-carboxamide” (Eli Lilly and Company, priority 2015, dated 2018).
Values belong to the compound of their own block, whether it stands above or below them.

What was measured:
[1] = Solid state physical stability versus relative humidity; format: physicochemical; settings: room temperature
Description: Such physical instability is undesirable, particularly for a pharmaceutical drug substance or drug product, both of which are subject to regulatory controls regarding the solid state forms. […] As such, the tosylate salt of N-{3-[(4aR,7aS)-2-amino-6-(5-fluoropyrimidin-2-yl)-4a,5,6,7-tetrahydropyrrolo[3,4-d][1,3]thiazin-7a(4H)-yl]-4-fluoro-phenyl}-5-methoxypyrazine-2-carboxamide essentially avoids the humidity dependent phase transformations associated with the corresponding crystalline free base forms. […] The increased likelihood of the free base to undergo phase transitions during long term storage can lead to variability in properties, such as solubility or dissolution rate, which may compromise the performance of the drug product. It also poses the additional risk of collapse of the crystal structure(s) to an amorphous form or accumulation of defects and disorder, which could lead to chemical instability and reduced shelf-life of the drug product.

[2] = system: Abeta 1-x peptide; assay: In vivo inhibition of beta-secretase (brain Abeta 1-x lowering); set-up: species or system mice; settings: for Abeta 1-x peptide levels reduced, brain cortex / Abeta 1-x peptide levels reduced, brain hippocampus: three hours after administration, compared to vehicle-treated mice
Description: Several animal models, including mouse, guinea pig, dog, and monkey, may be used to screen for inhibition of beta-secretase activity in vivo following compound treatment. Animals used in this invention can be wild type, transgenic, or gene knockout animals. For example, the PDAPP mouse model, prepared as described in Games et al., Nature 373, 523-527 (1995), and other non-transgenic or gene knockout animals are useful to analyze in vivo inhibition of Abeta and sAPPbeta production in the presence of inhibitory compounds. Generally, 2 to 12 month old PDAPP mice, gene knockout mice or non-transgenic animals are administered compound formulated in vehicles, such as corn oil, cyclodextran, phosphate buffers, […]®, or other suitable vehicles. One to twenty-four hours following the administration of compound, animals are sacrificed, and brains as well as cerebrospinal fluid and plasma are removed for analysis of Abetas, C99, and sAPP fragments. (See May, et al., Journal of Neuroscience, 31, 16507-16516 (2011)). For standard in vivo pharmacology studies, animals are dosed with various concentrations of compound and compared to a vehicle-treated control group dosed at the same time. For some time course studies, brain tissue, plasma, or cerebrospinal fluid is obtained from selected animals, beginning at time 0 to establish a baseline. Compound or appropriate vehicle is administered to other groups and sacrificed at various times after dosing. Brain tissue, plasma, or cerebrospinal fluid is obtained from selected animals and analyzed for the presence of APP cleavage products, including Abeta peptides, sAPPbeta, and other APP fragments, for example, by specific sandwich ELISA assays. At the end of the test period, animals are sacrificed and brain tissues, plasma, or cerebrospinal fluid are analyzed for the presence of Abeta peptides, C99, and sAPPbeta, as appropriate. Brain tissues of APP transgenic animals may also be analyzed for the amount of beta-amyloid plaques following compound treatment. “Abeta 1-x peptide” as used herein refers to the sum of Abeta species that begin with residue 1 and ending with a C-terminus greater than residue 28. This detects the majority of Abeta species and is often called “total Abeta”.

[3] = system: Abeta released by primary cortical neurons from PDAPP embryos; assay: PDAPP primary neuronal assay (Abeta ELISA); format: cell-based; settings: Mus musculus, Primary cortical neuron; 24 hours incubation; Abeta 1-42; Mean ± SEM; read-out: PDAPP Neuron A-beta (1-42) ELISA IC50
[4] = Solvent retained in the crystal; format: physicochemical

- relative humidity at which the crystal form is present / stable [1]: greater than 15 % relative humidity
- relative humidity at which the crystal form is present / stable ([1]; listed as crystalline form 2): above 15 % relative humidity
SMILES: COc1cnc(C(=O)Nc2ccc(F)c([C@]34CN(c5ncc(F)cn5)C[C@@H]3CN=C(N)S4)c2)cn1.O [Crystalline Form 2, Crystalline Form 2 N-[3-[(4aR,7aS)-2-Amino-6-(5-fluoropyrimidin-2-yl)-4,4a,5,7-tetrahydropyrrolo[3,4-d][1,3]thiazin-7a-yl]-4-fluoro-phenyl]-5-methoxy-pyrazine-2-carboxamide (Hydrated)]

- CNS penetration [2]: demonstrate CNS penetration
SMILES: COc1cnc(C(=O)Nc2ccc(F)c([C@]34CN(c5ncc(F)cn5)C[C@H]3CSC(N)=N4)c2)cn1 [N-[3-[(4aR,7aS)-2-amino-6-(5-fluoropyrimidin-2-yl)-4,4a,5,7-tetrahydropyrrolo[3,4-d][1,3]thiazin-7a-yl]-4-fluoro-phenyl]-5-methoxy-pyrazine-2-carboxamide]

- amount of solvent retained in the crystal [4]: about 7.7%
SMILES: COc1cnc(C(=O)Nc2ccc(F)c([C@]34CN(c5ncc(F)cn5)C[C@H]3CSC(N)=N4)c2)cn1.Cl [Preparation 46, N-[3-[(4aR,7aS)-2-Amino-6-(5-fluoropyrimidin-2-yl)-4,4a,5,7-tetrahydropyrrolo[3,4-d][1,3]thiazin-7a-yl]-4-fluoro-phenyl]-5-methoxy-pyrazine-2-carboxamide hydrochloride]
- IC50 [3]: 0.228 nM
- Abeta 1-x peptide levels reduced, brain cortex ([2]; 0.3 mg/kg oral dose): approximately 28%
- Abeta 1-x peptide levels reduced, brain hippocampus ([2]; 0.3 mg/kg oral dose): approximately 31%
- Abeta 1-x peptide levels reduced, brain cortex ([2]; 1 mg/kg oral dose): ~42%
- Abeta 1-x peptide levels reduced, brain hippocampus ([2]; 1 mg/kg oral dose): ~39%
- Abeta 1-x peptide levels reduced, brain cortex ([2]; 3 mg/kg oral dose): ~64%
- Abeta 1-x peptide levels reduced, brain hippocampus ([2]; 3 mg/kg oral dose): ~61%
